Experiments:
[1] = system: imine reductase derived from Streptomyces sp. GF3546; experiment: Substrate specificity of imine reductase: NADPH/NADH-dependent imine-reducing activity (decrease in absorbance at 340 nm); type: biochemical
Protocol: A reaction mixture containing the enzyme, 100 mM potassium phosphate buffer (pH 7.0), 0.2 mM NADPH, and 10 mM 2-methyl-1-pyrrolin was incubated at 30° C. The reaction mixture was assayed to determine the decrease in absorbance at 340 nm due to the decrease of NADPH. The amount of enzyme that catalyzes the decrease of 1 μmol of NADPH per minute was defined as 1 U.
(§1) The enzyme prepared as described in Example 4 was incubated with various imine compounds.

[2] = system: imine reductase derived from Streptomyces sp. GF3546; experiment: Substrate specificity of imine reductase: NADP+-dependent amine-oxidizing activity (increase in absorbance at 340 nm); type: biochemical; conditions: oxidation, substrate 10 mM, coenzyme NADP+
Protocol: A reaction mixture containing 100 mM glycine/potassium chloride/potassium hydroxide buffer 10.5, 2.5 mM NADP^+, 10 mM (S)-2-methylpyrrolidine, and the enzyme was incubated at 30° C. The reaction mixture was assayed to determine the increase in absorbance at 340 nm due to the increase of NADPH. The amount of enzyme that catalyzes the increase of 1 μmol of NADPH per minute was defined as 1 U.
as §1

[3] = substrate 10 mM, coenzyme NADPH, activity of reducing 2-methyl-1-pyrroline taken as 100
[4] = first % column, activity of reducing 2-methyl-1-pyrroline taken as 100
[5] = second % column, (S)-2-methylpyrrolidine = 100.0

Which Relative activity [1, 3] does the source give for CC(=Nc1ccccc1)c1ccccc1 (mixture of isomers) [N-((E/Z)-N-(1-phenylethylidene)aniline] here?
The Relative activity was 5.3%.

How did the Relative activity ([1]; substrate 0.05 mM, coenzyme NADPH, activity of reducing 2-methyl-1-pyrroline taken as 100) turn out when COc1cc2c(cc1OC)C(C)=NCC2 [1-Methyl-6,7-dimethoxy-3,4-dihydroisoquinoline] was run?
Its Relative activity is 8.9%.

Which results are given for CC1=NCCC1 [2-Methyl-1-pyrroline]?
Relative activity ([1]; substrate 10 mM, coenzyme NADH, activity of reducing 2-methyl-1-pyrroline (NADPH) taken as 100): 0.0%; Relative activity [1, 3]: 100.0%

C[C@@H]1CCCN1 [(R)-2-Methylpyrrolidine] was tested. Which Relative activity [2, 4] did it give?
Its Relative activity is 7.7%.

And the Relative activity [2, 5]?
Its Relative activity is 17.4%.

C[C@H]1CCCN1 [(S)-2-Methylpyrrolidine] was tested. Which Relative activity [2, 4] did it give?
The Relative activity was 44.1%.

What about the Relative activity [2, 5] of the same molecule?
The Relative activity was 100.0%.

For C(=NCc1ccccc1)c1ccccc1 [N-Benzylidenebenzylamine], which Relative activity [1, 3] is on record?
The Relative activity was 20.9%.
